Activity calls are given as the source filed them. The calls are words filed in the database; no cut-off is given here.
Experiments:
MDA-MB-231 = test: Cytotoxicity against human MDA-MB-231 cells after 48 hrs by MTT assay; type: functional, cell-based; settings: MDA-MB-231, 48 h
[1] = Induction of death receptor signaling-mediated apoptosis in human U2OS cells assessed as increase in caspase-8 level at 30 uM after 12 to 48 hrs by Western blotting method; type: cell-based
U2OS [2] = test: Cytotoxicity against human U2OS cells assessed as growth inhibition after 48 hrs by MTT assay relative to control; type: functional, cell-based
[3] = Induction of death receptor signaling-mediated apoptosis in human U2OS cells assessed as increase in Apaf-1 level at 30 uM after 12 to 48 hrs by Western blotting; type: cell-based
[4] = Induction of death receptor signaling-mediated apoptosis in human U2OS cells assessed as increase in cytochrome c level at 30 uM after 12 to 48 hrs by Western blotting; type: cell-based
[5] = Induction of death receptor signaling-mediated apoptosis in human U2OS cells assessed as decrease in cell viability at 30 uM after 48 hrs by MTT assay in presence of caspase-3 inhibitor […]; type: cell-based
[6] = Induction of death receptor signaling-mediated apoptosis in human U2OS cells assessed as decrease in Bcl-2 level at 30 uM after 12 to 48 hrs by Western blotting; type: cell-based
U2OS [7] = test: Induction of apoptosis in human U2OS cells after 48 hrs by MTT assay in presence of cyclosporine A; type: functional, cell-based
[8] = Induction of death receptor signaling-mediated apoptosis in human U2OS cells assessed as decrease in Bid level at 30 uM after 12 to 48 hrs by Western blotting; type: cell-based
[9] = Induction of death receptor signaling-mediated apoptosis in human U2OS cells assessed as decrease in cell viability at 30 uM after 48 hrs by MTT assay in presence of caspase-8 inhibitor Z-IETD-FMK; type: cell-based
[10] = Induction of death receptor signaling-mediated apoptosis in human U2OS cells assessed as decrease in mitochondrial membrane potential at 30 uM after 2 to 12 hrs relative to control; type: cell-based; settings: TDE = time-dependent effect
[11] = Induction of death receptor signaling-mediated apoptosis in human U2OS cells assessed as increase caspase-3 activity measuring release of pNA at 30 uM after 48 hrs by spectrophotometry; type: cell-based
[12] = Induction of death receptor signaling-mediated apoptosis in human U2OS cells assessed as increase in Bax level at 30 uM after 12 to 48 hrs by Western blotting; type: cell-based
[13] = Induction of death receptor signaling-mediated apoptosis in human U2OS cells assessed decrease in as cell viability at 30 uM after 48 hrs by MTT assay in presence of caspase-9 inhibitor Z-LEHD-FMK; type: cell-based
[14] = Cytotoxicity against human HT29-AK cells after 48 hrs by MTT assay; type: functional, cell-based
U2OS [15] = test: Induction of DNA damage in human U2OS cells by comet assay; type: functional, cell-based
MCF7 = test: Cytotoxicity against human MCF7 cells after 48 hrs by MTT assay; type: functional, cell-based; settings: MCF7, 48 h
[16] = Induction of death receptor signaling-mediated apoptosis in human U2OS cells assessed as increase in Endo-G level at 30 uM after 12 to 48 hrs by Western blotting; type: cell-based
[17] = Cytotoxicity against human FOB cells assessed as reduction in cell number after 48 hrs by MTT assay relative to control; type: cell-based
[18] = Induction of death receptor signaling-mediated apoptosis in human U2OS cells assessed as increase in FasL level at 30 uM after 12 to 48 hrs by Western blotting method; type: cell-based
U2OS [19] = test: Induction of apoptosis in human U2OS cells after 48 hrs by MTT assay in presence of ROS scavenger NAC; type: functional, cell-based
U-937 = test: Cytotoxicity against human U937 cells after 48 hrs by MTT assay; type: functional, cell-based; settings: U-937, 48 h
[20] = Induction of death receptor signaling-mediated apoptosis in human U2OS cells assessed as increase caspase-8 activity measuring release of pNA at 30 uM after 48 hrs by spectrophotometry; type: cell-based
U2OS [21] = test: Cytotoxicity against human U2OS cells after 48 hrs by MTT assay; type: functional, cell-based
U2OS [22] = test: Induction of apoptosis in human U2OS cells assessed as cell rounding at 30 uM after 48 hrs by phase-contrast microscopic analysis; type: functional, cell-based
U2OS [23] = test: Induction of apoptosis in human U2OS cells after 48 hrs by MTT assay in presence of anti-FasL monoclonal antibody; type: functional, cell-based
[24] = Induction of death receptor signaling-mediated apoptosis in human U2OS cells assessed as increase in caspase-9 level at 30 uM after 12 to 48 hrs by Western blotting; type: cell-based
U2OS [25] = test: Induction of apoptosis in human U2OS cells assessed as cell shrinking at 30 uM after 48 hrs by phase-contrast microscopic analysis; type: functional, cell-based
[26] = Induction of death receptor signaling-mediated apoptosis in human U2OS cells assessed as increase in FADD level at 30 uM after 12 to 48 hrs by Western blotting method; type: cell-based
[27] = Induction of death receptor signaling-mediated apoptosis in human U2OS cells assessed as increase in Fas level at 30 uM after 12 to 48 hrs by Western blotting method; type: cell-based
[28] = Induction of death receptor signaling-mediated apoptosis in human U2OS cells assessed as increase in AIF level at 30 uM after 12 to 48 hrs by Western blotting; type: cell-based
[29] = Induction of death receptor signaling-mediated apoptosis in human U2OS cells assessed as decrease in pro-caspase3 level at 30 uM after 12 to 48 hrs by Western blotting method; type: cell-based
[30] = Induction of death receptor signaling-mediated apoptosis in human U2OS cells assessed as increase in FasL expression at 30 uM after 12 hrs using FasL-FITC mAb by flow cytometry (Rvb= 1.23+/-0.11 %); type: cell-based
HL-60 = test: Cytotoxicity against human HL60 cells after 48 hrs by MTT assay; type: functional, cell-based; settings: HL-60, 48 h
[31] = Induction of death receptor signaling-mediated apoptosis in human U2OS cells assessed as increase caspase-9 activity measuring release of pNA at 30 uM after 48 hrs by spectrophotometry; type: cell-based
COLO 205 = test: Cytotoxicity against human COLO205 cells after 48 hrs by MTT assay; type: functional, cell-based; settings: COLO 205, 48 h
[32] = Induction of death receptor signaling-mediated apoptosis in human U2OS cells assessed as increase in production of reactive oxygen species at 30 uM after 2 to 12 hrs by flow cytometry relative to control; type: cell-based; settings: TDE = time-dependent effect
[33] = Induction of death receptor signaling-mediated apoptosis in human U2OS cells assessed as increase in Fas expression at 30 uM after 12 hrs using FasL-FITC mAb by flow cytometry (Rvb= 2.01+/-0.74 %); type: cell-based

COc1cccc(Nc2nc(-c3cccc(F)c3)nc3ccc(F)cc23)c1
IC50 (MDA-MB-231): 47.1 µM | Activity [1]: Active | growth inhibition (GI) (U2OS [2]): Dose-dependent effect | Activity [3]: Active | Activity [4]: Active | Activity [5]: inactive | Activity [6]: Active | Activity (U2OS [7]): inactive | Activity [8]: Active | Activity [9]: inactive | Activity [10]: tde | Activity [11]: Active | Activity [12]: Active | Activity [13]: inactive | IC50 [14]: 40.4 µM | Activity (U2OS [15]): Dose-dependent effect | IC50 (MCF7): 46.3 µM | Activity [16]: Active | Activity [17]: Non-toxic | Activity [18]: Active | Activity (U2OS [19]): inactive | IC50 (U-937): 39.6 µM | Activity [20]: Active | IC50 (U2OS [21]): 30.3 µM | Activity (U2OS [22]): Active | Activity (U2OS [23]): inactive | Activity [24]: Active | Activity (U2OS [25]): Active | Activity [26]: Active | Activity [27]: Active | Activity [28]: Active | Activity [29]: Active | Activity [30]: 76.2% | IC50 (HL-60): 35.5 µM | Activity [31]: Active | IC50 (COLO 205): 44.7 µM | Activity [32]: tde | Activity [33]: 76.2%

From ChEMBL document CHEMBL1817546, “The synthesized novel fluorinated compound (LJJ-10) induces death receptor- and mitochondria-dependent apoptotic cell death in the human osteogenic sarcoma U-2 OS cells” (Eur J Med Chem, 2011)
